Experiments:
[1] = Stability experiment (75% RH, 92.5% RH, 40° C., 60° C. and light for 10 days; XRPD pattern and purity); format: physicochemical; conditions: for stability (in words): 60° C. and light for 10 days
Protocol: X-ray powder diffraction instrument and test conditions involved in the present disclosure: the model of the X-ray diffraction instrument was Rigaku D/max-2200 Cu target; the operation method included a scanning speed of 10°/min and scanning step width of 0.01°.
High-performance liquid chromatography (HPLC) test conditions involved in the present disclosure: the model of the liquid chromatograph was Agilent 1260; the chromatographic column was Agilent Eclipse XDB C-18 250 mm*4.6 mm Sum; the detection wavelength was 280 nm; and the column temperature was 35° C.
The amorphous form of compound of formula I prepared in Preparation Example, the crystal form A of the compound of formula I prepared in Example 1, the crystal form B of the compound of formula I prepared in Example 7, and the crystal form C of the compound of formula I prepared in Example 11 were placed in 75% RH, 92.5% RH, 40° C., 60° C. and light for 10 days respectively, and the X-ray powder diffraction pattern and purity of each crystal form were measured.

[2] = Flowability test (angle of repose); format: physicochemical
Protocol: (§1) The amorphous form of compound of formula I prepared in Preparation Example, the crystal form A of the compound of formula I prepared in Example 1, the crystal form B of the compound of formula I prepared in Example 7, and the crystal form C of the compound of formula I prepared in Example 11 were measured for angle of repose, and the specific results are shown in the following table: […]

Granularity experiment = format: physicochemical
Protocol: as §1, with “granularity,” for “angle of repose,”

ERα = molecular target: T1, ERα (Homo sapiens, UniProt P03372); conditions: as indicated in WO2017080338A1; cited from earlier work
T1 sequence (P03372 1-595): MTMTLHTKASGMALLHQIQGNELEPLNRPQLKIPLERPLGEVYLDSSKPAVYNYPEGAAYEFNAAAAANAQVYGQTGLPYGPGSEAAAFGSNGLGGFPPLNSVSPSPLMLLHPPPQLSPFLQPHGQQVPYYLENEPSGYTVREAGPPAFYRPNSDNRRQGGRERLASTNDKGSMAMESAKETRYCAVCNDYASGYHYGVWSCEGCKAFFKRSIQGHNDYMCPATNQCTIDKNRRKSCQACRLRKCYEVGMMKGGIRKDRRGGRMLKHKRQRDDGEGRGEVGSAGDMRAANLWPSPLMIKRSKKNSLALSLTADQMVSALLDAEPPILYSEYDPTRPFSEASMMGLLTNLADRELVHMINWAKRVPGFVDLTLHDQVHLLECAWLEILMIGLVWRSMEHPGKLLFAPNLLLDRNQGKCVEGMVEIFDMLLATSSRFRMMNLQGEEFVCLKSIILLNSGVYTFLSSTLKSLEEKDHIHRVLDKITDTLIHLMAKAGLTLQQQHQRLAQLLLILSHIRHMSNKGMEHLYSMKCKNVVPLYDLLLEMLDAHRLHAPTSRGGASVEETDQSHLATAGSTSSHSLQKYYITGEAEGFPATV

[3] = compared with crystal forms A, B and C

SMILES	Purity % ([1]; 0 day)	Purity % ([1]; 40° C., 10 days)	Purity % ([1]; 60° C., 10 days)	stability (in words) ([1]; 75% RH, 92.5% RH, 40° C.)	Purity % ([1]; 75% RH, 10 days)	Purity % ([1]; 92.5% RH, 10 days)	Purity % ([1]; Light, 10 days)	angle of repose ([2]; measurement 1)	angle of repose ([2]; measurement 2)	angle of repose ([2]; measurement 3)	D50 (Granularity experiment; granularity)	D90 (Granularity experiment; granularity)	angle of repose (in words) [2, 3]	granularity (in words) (Granularity experiment; [3])	granularity (Granularity experiment; granularity, second column under amorphous form)	effect of down-regulating ERα (ERα)
C[C@@H]1Cc2c([nH]c3ccccc23)[C@@H](c2c(F)cc(/C=C/C(=O)O)cc2F)N1CC1(F)CC1 [crystal form A, (E)-3-(3,5-difluoro-4-((1R,3R)-2-((1-fluorocyclopropyl)methyl)-3-methyl-2,3,4,9-tetrahydro-1H-pyrido[3,4-b]indol-1-yl)phenyl)acrylic acid]	99.33%	99.27%	99.22%	good stability	99.31%	99.34%	99.27%	30.6°	29.6°	30.5°	16.37 μm	61.86 μm				
C[C@@H]1Cc2c([nH]c3ccccc23)[C@@H](c2c(F)cc(/C=C/C(=O)O)cc2F)N1CC1(F)CC1 [crystal form B, (E)-3-(3,5-difluoro-4-((1R,3R)-2-((1-fluorocyclopropyl)methyl)-3-methyl-2,3,4,9-tetrahydro-1H-pyrido[3,4-b]indol-1-yl)phenyl)acrylic acid]	99.87%	99.77%	99.75%	good stability	99.81%	99.81%	99.68%	32.5°	31.3°	32.3°	15.48 μm	60.79 μm				
C[C@@H]1Cc2c([nH]c3ccccc23)[C@@H](c2c(F)cc(/C=C/C(=O)O)cc2F)N1CC1(F)CC1 [amorphous form, (E)-3-(3,5-difluoro-4-((1R,3R)-2-((1-fluorocyclopropyl)methyl)-3-methyl-2,3,4,9-tetrahydro-1H-pyrido[3,4-b]indol-1-yl)phenyl)acrylic acid]	95.82%	95.80%	95.67%		96.22%	96.57%	95.55%	43.2°	41.9°	42.5°	3.02 μm		significantly larger than that of the crystal forms A, B and C	significantly smaller than that of the crystal forms A, B, and C	23.01 μm	
C[C@@H]1Cc2c([nH]c3ccccc23)[C@@H](c2c(F)cc(/C=C/C(=O)O)cc2F)N1CC1(F)CC1 [crystal form C, (E)-3-(3,5-difluoro-4-((1R,3R)-2-((1-fluorocyclopropyl)methyl)-3-methyl-2,3,4,9-tetrahydro-1H-pyrido[3,4-b]indol-1-yl)phenyl)acrylic acid]	99.78%	99.80%	99.84%	good stability	99.79%	99.78%	99.71%	31.5°	31.8°	30.9°	15.02 μm	59.88 μm				
C[C@@H]1Cc2c([nH]c3ccccc23)[C@@H](c2c(F)cc(/C=C/C(=O)O)cc2F)N1CC1(F)CC1 [compound of formula I, (E)-3-(3,5-difluoro-4-((1R,3R)-2-((1-fluorocyclopropyl)methyl)-3-methyl-2,3,4,9-tetrahydro-1H-pyrido[3,4-b]indol-1-yl)phenyl)acrylic acid]																good effect of down-regulating ERα
